{"source": "patent US5705499A", "about": "“8-arylalkyl- and 8-arylheteroalkyl-5,11-dihydro-6H-dipyrido[3,2-B:2',3'-e][1]diazepines and their use in the treatment of HIV-1 infection” (Boehringer Ingelheim Pharmaceuticals, Inc., priority 1996, dated 1998)", "origin": "cited, not measured here", "key": {"AIDS": {"tested_on": "AIDS", "conditions": "cited from earlier work"}, "RT (WT)": {"target": "RT (WT) (Human immunodeficiency virus type 1 group M subtype B, UniProt P04585)", "conditions": "same in vitro tests used for the compounds of the invention; cited from earlier work"}}, "data": [{"molecule": "Cc1ccnc2c1NC(=O)c1cccnc1N2C1CC1", "note": "[11-cyclopropyl-5,11-dihydro-4-methyl-6H-dipyrido[3,2-b;2',3', -e][1,4]diazepine-6-one]", "values": [{"measurement": "active in the treatment of AIDS in human tests", "setting": "AIDS", "value": "active in the treatment of AIDS in human tests"}, {"measurement": "active in the same in vitro tests", "setting": "RT (WT)", "value": "active in the same in vitro tests"}]}]}
